This is an account of results in publication PMC6995558, “Biological Evaluation, Molecular Docking, and SAR Studies of Novel 2-(2,4-Dihydroxyphenyl)-1H- Benzimidazole Analogues” (Biomolecules, 2019).

Read-outs that look alike come from different tables or passages of the source.

The target in data set [1] is T1, butyrylcholinesterase (BuChE, E.C. 3.1.1.8, from equine serum) (Equus caballus, UniProt P81908).
T1 construct: butyrylcholinesterase (BuChE, E.C. 3.1.1.8, from equine serum); purchased Sigma-Aldrich (Steinheim, Germany); host or cells: equine serum (natural source)
T1 sequence (P81908 whole entry): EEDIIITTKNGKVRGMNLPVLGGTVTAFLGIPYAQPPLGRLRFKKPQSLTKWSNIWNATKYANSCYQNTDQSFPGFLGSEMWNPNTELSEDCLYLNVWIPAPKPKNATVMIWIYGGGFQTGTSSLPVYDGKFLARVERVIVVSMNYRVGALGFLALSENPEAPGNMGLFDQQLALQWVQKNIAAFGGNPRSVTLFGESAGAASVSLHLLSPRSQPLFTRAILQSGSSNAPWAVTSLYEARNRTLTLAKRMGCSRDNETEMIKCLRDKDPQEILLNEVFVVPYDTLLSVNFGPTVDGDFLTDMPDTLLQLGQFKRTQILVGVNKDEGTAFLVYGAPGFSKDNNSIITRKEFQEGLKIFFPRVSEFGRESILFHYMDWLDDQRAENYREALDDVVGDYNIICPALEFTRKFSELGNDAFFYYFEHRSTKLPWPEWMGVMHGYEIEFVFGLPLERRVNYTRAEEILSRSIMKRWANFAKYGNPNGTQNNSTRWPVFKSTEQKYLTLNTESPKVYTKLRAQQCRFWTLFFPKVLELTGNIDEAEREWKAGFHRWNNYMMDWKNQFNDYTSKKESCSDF
Nature of the data set: biochemical. The procedure:
(§1) The details were described previously.
(§2) Their potency was determined using the modified Ellman’s method and expressed as the half of maximal inhibitory concentration, IC50 [34].

For the next data set, the system named is AChE. The conditions noted are these: Figure 1; cited from earlier work.
Data set [2] can be described thus: In vitro antioxidant activity assay (DPPH radical scavenging). As to conditions: DPPH 100 μM in methanol, 37 °C, 30 min; means ± SD of three experiments; read-out: IC50(DPPH) radical scavenging effect. The procedure: Antioxidant activity of each compound and standards (rutin) was assessed based on the radical scavenging effect of stable DPPH free radical. An amount of 10 μL of each tested compound or standard series of different concentrations (from 0.0 to 100 µM) was added to 9 mL of methanol solution of 2,2-diphenyl-1-picrylhydrazyl (DPPH) (100 μM). After incubation at 37 °C for 30 min, decrease in the absorbance of each solution was measured at 520 nm. The absorbance of the blank sample containing the same amount of DMSO and DPPH solution was also prepared and measured. All experiments were conducted in triplicate. The scavenging potential was compared with a solvent control (0% radical scavenging) and the standard compound. Radical scavenging activity (%AA) was calculated by the following formula: (%AA) = [(A0 − A1)/A0] × 100%(3) in which (A0) is the absorbance of the blank sample and (A1) is the absorbance of the tested compound (t = 30 min).
Reactive oxygen species are a causal factor in the process of aging and the cumulative damage has been associated with AD [45]. In this study, the DPPH radical scavenging activity of the newly synthesized compounds was estimated using the Brand-Williams method.
A general note: DPPH is a stable violet radical that fades when it is reduced.

Data set [3] addresses T2, Acetylcholinesterase (AChE, E.C. 3.1.1.7, from human erythrocytes) (Homo sapiens, UniProt P22303).
T2 construct: Acetylcholinesterase (AChE, E.C. 3.1.1.7, from human erythrocytes); purchased Sigma-Aldrich (Steinheim, Germany); host or cells: human erythrocytes (natural source)
The data set can be described thus: biochemical. Type of data set: biochemical. As to conditions: for Selectivity for AChE: IC50(BuChE)/IC50(AChE); for IC50: means ± SD of three independent experiments. The procedure: as §1, §2

Data set [4] can be described thus: RP-18 HPLC chromatography lipophilicity estimation. Type of data set: physicochemical. As to conditions: for −S (slope): methanol/acetate buffer pH 4.0; for log kw (intercept): methanol/acetate buffer pH 4.0, extrapolated to pure water. The procedure:
The Eurosil Bioselect C18 (5 μm, 300 × 4.6 mm) column was used as the stationary phase. The mobile phase consisted of different volume mixtures of methanol and 20 mM acetate buffer as the aqueous phase to give pH 4.0. The organic modifier concentration ranged from 0.30 to 0.75, depending on the structure of the compound at 0.05 (0.1) intervals. The flow rate was 0.5 cm^3·min^−1 at room temperature. Measurements were made at 292 nm. The retention time of an unretained solute (t0) was determined by the injection of a small amount of acetone dissolved in water. […] This is described by the Soczewiński–Wachtmeister dependence: log k = log kw + S (% organic modifier)(1) in which log kw is the retention factor of a solute with pure water as the mobile phase (intercept) and S is the regression curve (slope). The log k values were calculated as log k = log (tR − t0)/t0, where tR is the retention time of a solute and t0 is the retention time of an unretained solute.
To find the structure–activity relationships, some quantities of the compounds were estimated (Table 5). They included the lipophilicity parameter log kw obtained by RP-HPLC and calculated in silico log P, the topological polar surface area (tPSA), and the molar refractivity (MR) (Table 5). The log kw and S parameters obtained by the extrapolation technique are commonly used as lipophilicity descriptors.

[5] abbreviates: means ± SD of three experiments, read-out: BuChE IC50.

T2 sequence (P22303 32-617 isoform P22303-2 limits assumed): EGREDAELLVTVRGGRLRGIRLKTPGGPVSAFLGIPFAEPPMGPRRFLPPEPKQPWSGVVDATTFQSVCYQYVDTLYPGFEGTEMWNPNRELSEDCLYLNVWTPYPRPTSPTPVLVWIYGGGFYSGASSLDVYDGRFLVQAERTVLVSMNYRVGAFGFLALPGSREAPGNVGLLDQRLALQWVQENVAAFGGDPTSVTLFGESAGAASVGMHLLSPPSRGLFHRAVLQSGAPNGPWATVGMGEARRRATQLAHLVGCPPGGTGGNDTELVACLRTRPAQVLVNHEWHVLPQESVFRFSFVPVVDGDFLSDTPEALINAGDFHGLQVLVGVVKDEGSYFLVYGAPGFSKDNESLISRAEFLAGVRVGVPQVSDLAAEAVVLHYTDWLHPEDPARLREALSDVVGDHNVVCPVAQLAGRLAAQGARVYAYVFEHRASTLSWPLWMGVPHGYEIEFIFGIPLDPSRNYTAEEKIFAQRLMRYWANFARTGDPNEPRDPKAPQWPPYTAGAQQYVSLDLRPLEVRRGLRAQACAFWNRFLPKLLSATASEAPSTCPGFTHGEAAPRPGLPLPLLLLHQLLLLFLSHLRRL

Usually IC50 stands for the concentration that inhibits the measured activity by half. `CN(C)C(=O)Oc1cccc([N+](C)(C)C)c1` [neostigmine, reference compound]: half-maximal inhibition in data set [1] (IC50) was put at 68 ± 5 nM.

On to `CN1c2c(nn(-c3ccc(-c4nc5ccccc5[nH]4)cc3)c2-c2ccccc2)-c2ccccc2S1(=O)=O` [compound f], for which the IC50 in the data set with AChE is 11 nM.

Take `C[C@@H]1O[C@@H](OC[C@H]2O[C@@H](Oc3c(-c4ccc(O)c(O)c4)oc4cc(O)cc(O)c4c3=O)[C@H](O)[C@@H](O)[C@@H]2O)[C@H](O)[C@H](O)[C@H]1O` [rutin, reference compound]: the IC50 in data set [2] amounted to 87 ± 40 nM.

For `CCOC(=O)c1ccc2[nH]c(-c3cc(CC)c(O)cc3O)nc2c1` [Compound 9, Ethyl 2-(5-ethyl-2,4-dihydroxyphenyl)-1H-benzimidazole-5-carboxylate], in data set [3], the “Selectivity for AChE” value stood at 45.6 and the IC50 stood at 962 ± 23 nM. Moreover, the IC50 in data set [1] (setting [5]) worked out at 43860 ± 381 nM. Besides, in data set [4], the “−S (slope)” value was 4.160 and the “log kw (intercept)” value was 3.067.

Turning to `O=C1c2ccccc2C(=O)N1CCCn1c[n+](Cc2cccc3ccccc23)c2ccccc21` [d], the half-maximal inhibitory concentration (IC50) with AChE was 56 nM.

Regarding `Cc1c(O)ccc(-c2nc3ccc(C(F)(F)F)cc3[nH]2)c1O` [Compound 3, 4-[6-(Trifluoromethyl)-1H-benzimidazol-2-yl]-2-methylbenzene-1,3-diol], in data set [3], the “Selectivity for AChE” value was found to be 143.1 and half-maximal inhibition (IC50) required 98 ± 5 nM. Also, in data set [1] (setting [5]), the half-maximal inhibitory concentration (IC50) amounted to 14020 ± 111 nM. Also, in data set [4], the “−S (slope)” value is recorded as 6.299 and the “log kw (intercept)” value is on record as 5.720.

With `CCc1cc(-c2nc3ccc(C#N)cc3[nH]2)c(O)cc1O` [Compound 12, 2-(5-Ethyl-2,4-dihydroxyphenyl)-1H-benzimidazole-6-carbonitrile], the IC50 was > 500000 nM in data set [3], > 500000 nM in data set [1] (setting [5]) and 209 ± 20 nM in data set [2]. In addition, the “−S (slope)” value in data set [4] was 4.854. Moreover, in data set [4], the “log kw (intercept)” value is 3.360.

On to `CCc1cc(-c2nc3cc(C(F)(F)F)cc(Cl)c3[nH]2)c(O)cc1O` [Compound 4, 4-(7-Chloro-5-(trifluoromethyl)-1H-benzimidazol-2-yl)-6-ethylbenzene-1,3-diol], for which, in data set [3], the “Selectivity for AChE with respect to BuChE (in words)” value is “highly selective”, the “Selectivity for AChE” value was determined as 390.0 and the IC50 came out at 118 ± 9 nM. In addition, the IC50 in data set [1] (setting [5]) was found to be 46030 ± 104 nM. Besides, in data set [4], the “−S (slope)” value was 4.635 and the “log kw (intercept)” value is reported as 4.237.

On to `Clc1ccc2[nH]c(-c3ccc(OCCN4CCCCC4)cc3)nc2c1` [compound a], for which the IC50 with AChE was 130 nM.

Regarding `Oc1cc(O)c(-c2nc3cc(Cl)c(Cl)cc3[nH]2)cc1Cl` [Compound 2, 4-(5,6-Dichloro-1H-benzimidazol-2-yl)-6-chlorobenzene-1,3-diol], in data set [3], the “Selectivity for AChE” value is given as 41.9 and the IC50 was 541 ± 36 nM. Also, the IC50 in data set [1] (setting [5]) was determined as 22690 ± 78 nM. Also, the IC50 in data set [2] worked out at 213 ± 80 nM. Besides, in data set [4], the “−S (slope)” value is listed as 5.770 and the “log kw (intercept)” value was 5.460.

Take `C=Cc1ccc(C[n+]2cn(C)c3ccccc32)cc1` [e]: the 50% inhibitory concentration (IC50) in the data set on AChE is 45 nM.

As to `CCOC(=O)c1ccc2[nH]c(-c3ccc(O)c(C)c3O)nc2c1` [Compound 8, Ethyl 2-(2,4-dihydroxy-3-methylphenyl)-1H-benzimidazole-5-carboxylate], in data set [3], the “Selectivity for AChE” value is 137.8 and the IC50 was determined as 184 ± 22 nM. The IC50 in data set [1] (setting [5]) came out at 25350 ± 232 nM. Also, the IC50 in data set [2] was found to be 125 ± 60 nM. In data set [4], the “−S (slope)” value is 4.097 and the “log kw (intercept)” value is given as 2.566.

For the compound `COc1ccc2nc(-c3ccc(O)c(O)c3O)[nH]c2c1` [Compound 7, 4-(6-Methoxy-1H-benzimidazol-2-yl)benzene-1,2,3-triol], in data set [3], the “Activity against AChE (in words)” value was “inactive” and the IC50 was > 500000 nM. Also, in data set [1] (setting [5]), the IC50 was > 500000 nM. Besides, in data set [4], the “−S (slope)” value was 3.870 and the “log kw (intercept)” value is 3.589.

Consider `CCOC(=O)c1ccc2[nH]c(-c3c(O)cc(O)cc3O)nc2c1` [Compound 10, Ethyl 2-(2,4,6-trihydroxyphenyl)-1H-benzimidazole-5-carboxylate], for which, in data set [3], the “Activity against AChE (in words)” value is “inactive” and the 50% inhibitory concentration (IC50) is > 500000 nM. In addition, the IC50 in data set [1] (setting [5]) is > 500000 nM. In data set [4], the “−S (slope)” value is recorded as 3.237 and the “log kw (intercept)” value was 2.088.

Regarding `Cc1c(O)ccc(-c2nc3ccc(C#N)cc3[nH]2)c1O` [Compound 11, 2-(2,4-Dihydroxy-3-methylphenyl)-1H-benzimidazole-6-carbonitrile], the concentration for half-maximal inhibition (IC50) in data set [3] and in data set [1] (setting [5]) was > 500000 nM throughout. In addition, the “−S (slope)” value in data set [4] is 3.867. Also, in data set [4], the “log kw (intercept)” value is reported as 3.590.

Take `Oc1ccc(-c2nc3ccccc3[nH]2)c(O)c1` [bib-1,3-diol, 4-(1H-benzimidazol-2-yl)benzene-1,3-diol, reference compound]: in data set [3], the “Selectivity for AChE” value was determined as 109.2 and the midpoint of inhibition, the IC50, lay at 284 ± 14 nM. Besides, in data set [1] (setting [5]), the IC50 worked out at 31020 ± 133 nM. In data set [4], the “−S (slope)” value was 2.979 and the “log kw (intercept)” value is 1.732.

For the compound `O=[N+]([O-])c1ccc2nc(-c3ccc(O)cc3O)[nH]c2c1` [Compound 13, 4-(6-Nitro-1H-benzimidazol-2-yl)benzene-1,3-diol], in data set [3], the “Selectivity for AChE” value is reported as 71.7 and inhibition was half-maximal at 1490 ± 118 nM (IC50). Further, the concentration for half-maximal inhibition (IC50) in data set [1] (setting [5]) turned out to be 106600 ± 201 nM. For the same compound, in data set [4], the “−S (slope)” value is listed as 4.655 and the “log kw (intercept)” value is reported as 2.475.

In the case of `Cc1c(O)ccc(-c2nc3ccc([N+](=O)[O-])cc3[nH]2)c1O` [Compound 14, 2-Methyl-4-(6-nitro-1H-benzimidazol-2-yl)benzene-1,3-diol], in data set [3], the “Selectivity for AChE” value was 88.1 and 1000 ± 196 nM corresponded to half-maximal inhibition (IC50). Moreover, in data set [1] (setting [5]), the IC50 turned out to be 88360 ± 155 nM. In data set [4], the “−S (slope)” value is on record as 4.596 and the “log kw (intercept)” value is 2.674.

As to `CCN(CC)Cc1cc(-c2nc3cc([N+](=O)[O-])ccc3[nH]2)ccc1O` [compound b], in the data set on AChE, the concentration for half-maximal inhibition (IC50) was 930 nM.
